Measured values taken from patent US12479822B2, “AHR agonists” (Eli Lilly and Company, priority 2021, dated 2025).

Target: T1, Human AHR (Homo sapiens, UniProt P35869)
T1 construct: expressed in transfected cells
T1 sequence (P35869 11-848): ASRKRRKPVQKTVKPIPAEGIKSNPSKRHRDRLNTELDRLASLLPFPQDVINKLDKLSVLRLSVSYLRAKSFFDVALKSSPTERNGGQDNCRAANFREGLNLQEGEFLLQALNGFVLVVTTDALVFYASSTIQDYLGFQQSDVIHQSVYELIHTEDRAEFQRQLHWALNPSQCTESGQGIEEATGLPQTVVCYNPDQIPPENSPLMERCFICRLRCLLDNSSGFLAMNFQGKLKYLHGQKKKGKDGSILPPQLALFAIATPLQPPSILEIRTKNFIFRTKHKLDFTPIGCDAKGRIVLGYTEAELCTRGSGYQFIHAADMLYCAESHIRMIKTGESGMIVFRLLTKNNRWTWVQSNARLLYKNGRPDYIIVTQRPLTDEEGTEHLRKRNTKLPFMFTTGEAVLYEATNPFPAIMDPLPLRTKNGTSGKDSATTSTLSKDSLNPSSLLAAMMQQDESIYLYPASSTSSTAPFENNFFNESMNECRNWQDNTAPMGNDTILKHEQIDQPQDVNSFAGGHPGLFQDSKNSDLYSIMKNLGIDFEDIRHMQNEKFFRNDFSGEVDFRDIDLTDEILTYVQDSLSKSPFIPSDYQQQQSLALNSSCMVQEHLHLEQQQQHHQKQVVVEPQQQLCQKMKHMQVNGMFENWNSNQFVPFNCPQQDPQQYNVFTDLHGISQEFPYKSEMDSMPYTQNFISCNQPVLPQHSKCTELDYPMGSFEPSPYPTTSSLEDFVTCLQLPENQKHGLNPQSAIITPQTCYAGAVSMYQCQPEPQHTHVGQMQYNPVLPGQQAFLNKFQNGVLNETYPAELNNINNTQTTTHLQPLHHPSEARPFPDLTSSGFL
Assay: hAHR Nuclear Translocation Assay
Format: cell-based
Details: Jump-In T-REx HEK293 cells expressing AhR-EGFP chimera; 45 minutes incubation; ratio of EGFP fluorescent intensity in nuclear over cytosol; 20-point curve
Procedure: Stable cell lines were established using Jump-In™ T-REx™ HEK293 Retargeting Kit (Life Technologies). Human AHR cDNA was cloned into the pJTI R4 CMV-TO EGFP vector. The EGFP was cloned to the C-terminal of AHR to form AhR-EGFP chimera. The pJTI R4 CMV-TO AhR-EGFP vector was transfected using FuGENE® HD into Jump-In™ T-REx™ HEK293 cells. Transfected cells were selected using 2.5 mg/ml G418 for 10 to 14 days, then expanded, harvested, and suspended in freeze media (FBS with 8% DMSO) at 2×10^7 cells/ml, and aliquots were stored in liquid nitrogen. […] On the assay date, compound was serially diluted (1:2) into 384-well nunc plates with DMSO using acoustic dispensing (ECHO). The dose response was a 20-point curve. Compound was resuspended in 40 μl of DMEM plus 0.1% BSA. The culture media was damped and 25 μl of DMEM plus 0.1% BSA was added, then 25 μl of compound in DMEM plus 0.1% BSA was added into cell plates. Cells were incubated with compounds at 37° C. and 5% CO2 for 45 minutes. The final DMSO concentration was 0.2%. The media was damped after 45 minutes of incubation. The cells were fixed with 40 μl of cold methanol (−20° C.) for 20 minutes. The methanol was damped and 50 μl of DPBS containing 1 μg/ml Hochst was added into the cell plates. The intensity of EGFP was quantitated by using OPERA PHENIX® or Operetta™ high content image system (Perkin Elmer) with 20× Water Objective and five field per well. The ratio of EGFP fluorescent intensity in nuclear over cytosol was analyzed using a 4-parameter nonlinear logistic equation to determine the potency of AHR agonists.

EC50 [nM] | Compound
6.13 | Cc1ccnc(NC(=O)c2cc3ccccc3n(C)c2=O)c1 [Example 7, 1-Methyl-N-(4-methyl-2-pyridyl)-2-oxo-quinoline-3-carboxamide]
0.57 | Cc1ccc(NC(=O)c2cc3cccc4c3n(c2=O)CC4)cc1 [Example 29, 11-Oxo-N-(p-tolyl)-1-azatricyclo[6.3.1.04,12]dodeca-4(12),5,7,9-tetraene-10-carboxamide]
3.96 | O=C(Nc1ccccn1)c1cc2cccc3c2n(c1=O)CC3 [Example 42, 11-Oxo-N-(2-pyridyl)-1-azatricyclo[6.3.1.04,12]dodeca-4(12),5,7,9-tetraene-10-carboxamide]
0.832 | COc1ccc(NC(=O)c2cc3ccc(Br)cc3n(C)c2=O)cc1 [Example 36, 7-Bromo-N-(4-methoxyphenyl)-1-methyl-2-oxo-quinoline-3-carboxamide]
6.34 | O=C(Nc1ncccn1)c1cc2cccc3c2n(c1=O)CC3 [Example 38, 11-Oxo-N-pyrimidin-2-yl-1-azatricyclo[6.3.1.04,12]dodeca-4(12),5,7,9-tetraene-10-carboxamide]
26.8 | CN(C)CCNc1cccc2cc(C(=O)Nc3ccccc3)c(=O)n(C)c12 [Example 50, 8-[2-(Dimethylamino)ethylamino]-1-methyl-2-oxo-N-phenyl-quinoline-3-carboxamide]
25.8 | Cc1cccc(NC(=O)c2cc3ccccc3n(C)c2=O)n1 [Example 19, 1-Methyl-N-(6-methyl-2-pyridyl)-2-oxo-quinoline-3-carboxamide]
53.2 | CO[C@H]1CC[C@@H](NC(=O)c2cc3cccc4c3n(c2=O)CC4)C1 (relative stereo) [Example 31, 11-Oxo-N-[rel-(1S,3R)-3-methoxycyclopentyl]-1-azatricyclo[6.3.1.04,12]dodeca-4(12),5,7,9-tetraene-10-carboxamide]
0.701 | COc1ccc(NC(=O)c2cc3cccc4c3n(c2=O)CC4)cc1 [Example 26, N-(4-Methoxyphenyl)-11-oxo-1-azatricyclo[6.3.1.04,12]dodeca-4(12),5,7,9-tetraene-10-carboxamide]
1.92 | Cn1c(=O)c(C(=O)Nc2ccc(F)cn2)cc2c(NCCO)cccc21 [Example 67, N-(5-Fluoro-2-pyridyl)-5-(2-hydroxyethylamino)-1-methyl-2-oxo-quinoline-3-carboxamide]
9.04 | O=C(Nc1ccccc1)c1cc2ccccc2[nH]c1=O [Example 34, 2-Oxo-N-phenyl-1H-quinoline-3-carboxamide]
52.9 | Cn1c(=O)c(C(=O)Nc2ncc(F)s2)cc2c(NCCO)cccc21 [Example 64, N-(5-Fluorothiazol-2-yl)-5-(2-hydroxyethylamino)-1-methyl-2-oxo-quinoline-3-carboxamide]
2.57 | COc1ccc(NC(=O)c2cc3cccc4c3n(c2=O)CCC4)cc1 [Example 25, N-(4-Methoxyphenyl)-2-oxo-1-azatricyclo[7.3.1.05,13]trideca-3,5,7,9(13)-tetraene-3-carboxamide]
3.72 | Cn1c(=O)c(C(=O)Nc2cccnc2)cc2ccccc21 [Example 13, 1-Methyl-2-oxo-N-(3-pyridyl)quinoline-3-carboxamide]
2.29 | COc1ccc(NC(=O)c2cc3cccnc3n(C)c2=O)cc1 [Example 35, N-(4-Methoxyphenyl)-1-methyl-2-oxo-1,8-naphthyridine-3-carboxamide]
0.511 | O=C(Nc1ccc(F)cc1)c1cc2cccc3c2n(c1=O)CC3 [Example 30, N-(4-Fluorophenyl)-11-oxo-1-azatricyclo[6.3.1.04,12]dodeca-4(12),5,7,9-tetraene-10-carboxamide]
6.89 | Cn1c(=O)c(C(=O)Nc2ccncc2)cc2ccccc21 [Example 12, 1-Methyl-2-oxo-N-(4-pyridyl)quinoline-3-carboxamide]
6.24 | Cc1ccc(NC(=O)c2cc3cccc4c3n(c2=O)CC4)nc1 [Example 41, N-(5-Methyl-2-pyridyl)-11-oxo-1-azatricyclo[6.3.1.04, 12]dodeca-4(12),5,7,9-tetraene-10-carboxamide]

EC50 [nM] | Compound
0.807 | O=C(Nc1ccc(F)cn1)c1cc2cccc3c2n(c1=O)CC3 [Example 37, N-(5-Fluoro-2-pyridyl)-11-oxo-1-azatricyclo[6.3.1.04,12]dodeca-4(12),5,7,9-tetraene-10-carboxamide]
20.3 | CN(C)CCNc1ccc2c(c1)cc(C(=O)Nc1ccc(F)cn1)c(=O)n2C [Example 52, 6-[2-(Dimethylamino)ethylamino]-N-(5-fluoro-2-pyridyl)-1-methyl-2-oxo-quinoline-3-carboxamide]
0.831 | Cn1c(=O)c(C(=O)Nc2ccccc2)cc2ccc(Br)cc21 [Example 40, 7-Bromo-1-methyl-2-oxo-N-phenyl-quinoline-3-carboxamide]
18.3 | CN(C)CCNc1cccc2c1cc(C(=O)Nc1ncc(C(F)(F)F)cn1)c(=O)n2C [Example 54, 5-[2-(Dimethylamino)ethylamino]-1-methyl-2-oxo-N-[5-(trifluoromethyl)pyrimidin-2-yl]quinoline-3-carboxamide]
53.9 | Cn1c(=O)c(C(=O)Nc2ccc(F)cn2)cc2cc(NCCO)ccc21 [Example 66, N-(5-Fluoro-2-pyridyl)-6-(2-hydroxyethylamino)-1-methyl-2-oxo-quinoline-3-carboxamide]
0.601 | Cn1c(=O)c(C(=O)Nc2cccc(F)c2)cc2ccccc21 [Example 23, N-(3-Fluorophenyl)-1-methyl-2-oxo-quinoline-3-carboxamide]
7.36 | Cn1c(=O)c(C(=O)Nc2ccc(C#N)nc2)cc2ccccc21 [Example 24, N-(6-Cyano-3-pyridyl)-1-methyl-2-oxo-quinoline-3-carboxamide]
1.91 | Cn1c(=O)c(C(=O)Nc2ccccc2)cc2c(NCCO)cccc21 [Example 63, 5-(2-Hydroxyethylamino)-1-methyl-2-oxo-N-phenyl-quinoline-3-carboxamide]
16.2 | CN(C)CCNc1cccc2c1cc(C(=O)Nc1ccccn1)c(=O)n2C [Example 53, 5-[2-(Dimethylamino)ethylamino]-1-methyl-2-oxo-N-(2-pyridyl)quinoline-3-carboxamide]
0.675 | Cc1ccc(NC(=O)c2cc3ccccc3n(C)c2=O)nc1 [Example 20, 1-Methyl-N-(5-methyl-2-pyridyl)-2-oxo-quinoline-3-carboxamide]
1.91 | Cn1c(=O)c(C(=O)Nc2ncccc2F)cc2ccccc21 [Example 28, N-(3-Fluoro-2-pyridyl)-1-methyl-2-oxo-quinoline-3-carboxamide]
5.17 | COc1ccc(NC(=O)c2cc3ccccc3n(C)c2=O)c(C)c1 [Example 6, N-(4-Methoxy-2-methyl-phenyl)-1-methyl-2-oxo-quinoline-3-carboxamide]
0.304 | COc1ccc(NC(=O)c2cc3ccccc3n(C)c2=O)cc1 [Example 1, N-(4-Methoxyphenyl)-1-methyl-2-oxo-quinoline-3-carboxamide]
6.69 | Cn1c(=O)c(C(=O)Nc2ccccn2)cc2c(NCCO)cccc21 [Example 65, 5-(2-Hydroxyethylamino)-1-methyl-2-oxo-N-(2-pyridyl)quinoline-3-carboxamide]
1.12 | COc1cccc(NC(=O)c2cc3ccccc3n(C)c2=O)c1 [Example 8, N-(3-Methoxyphenyl)-1-methyl-2-oxo-quinoline-3-carboxamide]
3.5 | Cc1ccccc1NC(=O)c1cc2ccccc2n(C)c1=O [Example 11, 1-Methyl-N-(o-tolyl)-2-oxo-quinoline-3-carboxamide]
0.613 | Cn1c(=O)c(C(=O)Nc2ccccn2)cc2ccccc21 [Example 9, 1-Methyl-2-oxo-N-(2-pyridyl)quinoline-3-carboxamide]
